Among the data in US7605269B2, “Thiophene derivatives as Sphingosine-1-phosphate-1 receptor agonists” (Actelion Pharmaceuticals Ltd., priority 2005, dated 2009) are EC50 and Lymphocyte counts values, retold here.

Molecules are shown by their SMILES.

recombinant human S1P1 receptor, sequence (P21453 whole entry): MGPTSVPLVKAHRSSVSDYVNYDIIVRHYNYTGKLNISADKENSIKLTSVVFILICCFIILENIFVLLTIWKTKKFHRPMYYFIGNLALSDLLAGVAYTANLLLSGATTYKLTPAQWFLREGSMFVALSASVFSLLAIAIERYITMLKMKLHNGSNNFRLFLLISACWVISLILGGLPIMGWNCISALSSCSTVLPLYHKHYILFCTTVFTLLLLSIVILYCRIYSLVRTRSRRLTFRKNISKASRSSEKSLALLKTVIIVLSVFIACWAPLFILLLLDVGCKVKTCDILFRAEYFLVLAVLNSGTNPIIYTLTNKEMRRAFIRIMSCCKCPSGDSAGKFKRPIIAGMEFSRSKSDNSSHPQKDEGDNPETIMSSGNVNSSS

The target of one assay is recombinant human S1P1 receptor (Homo sapiens, UniProt P21453). Briefly: GTPγS assay to determine EC50 values. The class given is biochemical. The settings on record: 35S-GTPγS binding, membrane preparations of CHO cells expressing recombinant human S1P1 receptor. Here is the method:
The pH is 7.4. Test compounds are dissolved and diluted in 100% DMSO and pre-incubated at room temperature for 30 min in 150 μl of the above assay buffer, in the absence of ^35S-GTPγS. After addition of 50 μl of ^35S-GTPγS, the assay is incubated for 1 h at room temperature. […] Membrane-bound ^35S-GTPγS is measured with a TopCount from Packard Biosciences.
Specific binding is determined by subtracting non-specific binding from maximal binding. Maximal binding is the amount of cpm bound to the Multiscreen plate in the presence of 10 μM of S1P. Non-specific binding is the amount of binding in the absence of an agonist in the assay.
As for `Cc1sc(-c2nc(-c3ccc(OC[C@H](O)CO)cc3)no2)c2c1[C@H]1[C@@H](C2)C1(C)C` [Example 6, (2R)-3-{4-[5-((1aS,5aR)-1,1,2-trimethyl-1,1a,5,5a-tetrahydro-3-thia-cyclopropa[a]pentalen-4-yl)-[1,2,4]oxadiazol-3-yl]-phenoxy}-propane-1,2-diol], the EC50 was found to be 12 nM.

On to `Cc1cc(-c2noc(-c3sc(C)c4c3C[C@@H]3[C@H]4C3(C)C)n2)cc(C)c1OCC(CO)CO` [Example 19, 2-{2,6-dimethyl-4-[5-((1aS,5aR)-1,1,2-trimethyl-1,1a,5,5a-tetrahydro-3-thia-cyclopropa[a]pentalen-4-yl)-[1,2,4]oxadiazol-3-yl]-phenoxymethyl}-propane-1,3-diol], for which the EC50 was 1.2 nM.

Regarding `Cc1cc(-c2noc(-c3sc(C)c4c3C[C@@H]3[C@H]4C3(C)C)n2)cc(C)c1OCCCN` [Example 24, 3-{2,6-dimethyl-4-[5-((1aS,5aR)-1,1,2-trimethyl-1,1a,5,5a-tetrahydro-3-thia-cyclopropa[a]pentalen-4-yl)-[1,2,4]oxadiazol-3-yl]-phenoxy}-propylamine], the EC50 stood at 4.8 nM.

Take `Cc1cc(-c2noc(-c3sc(C)c4c3C[C@@H]3[C@H]4C3(C)C)n2)cc(C)c1OCCCNCCO` [Example 27, 2-(3-{2,6-dimethyl-4-[5-((1aS,5aR)-1,1,2-trimethyl-1,1a,5,5a-tetrahydro-3-thia-cyclopropa[a]pentalen-4-yl)-[1,2,4]oxadiazol-3-yl]-phenoxy}-propylamino)-ethanol]: the EC50 was found to be 6.1 nM.

As to `Cc1cc(-c2noc(-c3sc(C)c4c3C[C@@H]3[C@H]4C3(C)C)n2)cc(C)c1OCCCN1CCCC1C(=O)O` (stereo partly drawn) [Example 32, 1-(3-{2,6-dimethyl-4-[5-((1aS,5aR)-1,1,2-trimethyl-1,1a,5,5a-tetrahydro-3-thia-cyclopropa[a]pentalen-4-yl)-[1,2,4]oxadiazol-3-yl]-phenoxy}-propyl)-pyrrolidine-2-carboxylic acid], the EC50 turned out to be 8.8 nM.

Turning to `Cc1cc(-c2nc(-c3sc(C)c4c3C[C@@H]3[C@H]4C3(C)C)no2)cc(C)c1O` [Example 38, 2,6-dimethyl-4-[3-((1aS,5aR)-1,1,2-trimethyl-1,1a,5,5a-tetrahydro-3-thia-cyclopropa[a]pentalen-4-yl)-[1,2,4]oxadiazol-5-yl]-phenol], the EC50 is 1.6 nM.

Consider `Cc1cc(-c2nc(-c3sc(C)c4c3C[C@@H]3[C@H]4C3(C)C)no2)cc(C)c1OCCO` [Example 39, 2-{2,6-dimethyl-4-[3-((1aS,5aR)-1,1,2-trimethyl-1,1a,5,5a-tetrahydro-3-thia-cyclopropa[a]pentalen-4-yl)-[1,2,4]oxadiazol-5-yl]-phenoxy}-ethanol], for which the EC50 worked out at 1.1 nM.

In the case of `Cc1cc(-c2nc(-c3sc(C)c4c3C[C@@H]3[C@H]4C3(C)C)no2)cc(C)c1OCC(CO)CO` [Example 43, 2-{2,6-dimethyl-4-[3-((1aS,5aR)-1,1,2-trimethyl-1,1a,5,5a-tetrahydro-3-thia-cyclopropa[a]pentalen-4-yl)-[1,2,4]oxadiazol-5-yl]-phenoxymethyl}-propane-1,3-diol], the EC50 was 1.4 nM.

A further assay has as its system circulating lymphocytes. Description: Assessment of in vivo efficacy: circulating lymphocytes after oral administration. Also noted: species or system rat. The settings on record: 6 h after oral administration of 10 mg/kg, normotensive male Wistar rats, compared to vehicle-treated group.
Protocol: The efficacy of the compounds of Formula (I) is assessed by measuring the circulating lymphocytes after oral administration of 3 to 30 mg/kg of a compound of Formula (I) to normotensive male Wistar rats. The animals are housed in climate-controlled conditions with a 12 h-light/dark cycle, and have free access to normal rat chow and drinking water. Blood is collected before and 3, 6 and 24 h after drug administration. Full blood is subjected to hematology using Advia Hematology system (Bayer Diagnostics, Zurich, Switzerland).
All data are presented as mean ±SEM. Statistical analyses are performed by analysis of variance (ANOVA) using Statistica (StatSoft) and the Student-Newman-Keuls procedure for multiple comparisons. The null hypothesis is rejected when p<0.05.
Turning to `Cc1cc(-c2noc(-c3sc(C)c4c3C[C@@H]3[C@H]4C3(C)C)n2)cc(C)c1OCC(CO)CO` [Example 19, 2-{2,6-dimethyl-4-[5-((1aS,5aR)-1,1,2-trimethyl-1,1a,5,5a-tetrahydro-3-thia-cyclopropa[a]pentalen-4-yl)-[1,2,4]oxadiazol-3-yl]-phenoxymethyl}-propane-1,3-diol], the Lymphocyte counts is on record as −56%.
